{"source": "patent US20240228570A9", "about": "“PLATFORM TECHNOLOGY FOR TREATMENT OF INFLAMMATORY, IMMUNOLOGICAL AND/OR AUTOIMMUNOLOGICAL DISEASES” (ellennbe GmbH, priority 2021, published 2024)", "key": {"[1]": {"test_system": "perfusion of the skin", "conditions": "cited from earlier work"}, "[2]": {"assay": "Adverse side effects, intolerances, incompatibilities in treated subjects and patients", "type": "in vivo, human", "conditions": "for adverse effects of earlier or basic treatment (patient history): Patient 7, rheumatoid arthritis/synovitis; for earlier treatment with TNF-α inhibitors (patient history): Patient 12, ankylosing spondylitis"}, "[3]": {"test_system": "inflammatory disease, immunological disease and/or autoimmunological disease", "assay": "Treatment of patients: condition as stated by patient and physician (pain, fatigue, daily life, duration of effect, relapses)", "type": "in vivo, human", "protocol": "All patients treated in the following Inventive Examples, Reference Examples and Comparative Examples were selected solely based on their diagnosis without performing a preselection in view of other parameters.\nAnnotation to the Tables 8A and B and 9 to 10: Patients were usually examined and treated in the same session. The success of the treatment or the effect thereof was then determined in the following session, usually one week later, and the next treatment performed as indicated in the tables."}}, "data": [{"molecule": "COC(=O)c1cccnc1", "note": "[MN, methyl nicotinate]", "values": [{"measurement": "perfusion response of the skin", "setting": "[1]; 50 μl of 20 mmol/l MN topical, healthy subjects, Laser Speckle Contrast Imager", "result": "reproducible perfusion response"}, {"measurement": "time course of the perfusion increase", "setting": "[1]; topical application of MN, increase occurs a few minutes after application", "result": "reaches a stable plateau phase after five minutes"}]}, {"molecule": "CCN(CCO)CCCC(C)Nc1ccnc2cc(Cl)ccc12.O=S(=O)(O)O", "note": "(stereo not shown) [Quensyl®, hydroxychloroquin sulphate]", "values": [{"measurement": "adverse effects of earlier or basic treatment (patient history)", "setting": "[2]", "result": "can cause irreversible eye damage with long-term use"}]}, {"molecule": "Simponi®: biologic, golimumab", "values": [{"measurement": "effect of earlier treatment with biologics (patient's report)", "setting": "[3]; Patient 11, ankylosing spondylitis, within half a year the biologics lost their effect", "result": "had little effect from the outset"}]}, {"molecule": "CN(Cc1cnc2nc(N)nc(N)c2n1)c1ccc(C(=O)N[C@@H](CCC(=O)O)C(=O)O)cc1", "note": "[MTX, methotrexate]", "values": [{"measurement": "adverse effects of earlier or basic treatment (patient history)", "setting": "[2]", "result": "severe adverse effects (tendency to fibrosis in the lungs and sinusitis)"}]}, {"molecule": "Symponi®: TNF-α inhibitor", "values": [{"measurement": "earlier treatment with TNF-α inhibitors (patient history)", "setting": "[2]", "result": "accompanied by strong adverse side effects and hence, not successful"}]}, {"molecule": "Remicade®: TNF-α inhibitor", "values": [{"measurement": "earlier treatment with TNF-α inhibitors (patient history)", "setting": "[2]", "result": "accompanied by strong adverse side effects and hence, not successful"}]}, {"molecule": "Enbrel®", "values": [{"measurement": "earlier treatment with TNF-α inhibitors (patient history)", "setting": "[2]", "result": "accompanied by strong adverse side effects and hence, not successful"}]}, {"molecule": "CC[C@@H]1CN(C(=O)NCC(F)(F)F)C[C@@H]1c1cnc2cnc3[nH]ccc3n12", "note": "[upadacitinib]", "values": [{"measurement": "adverse effects of earlier or basic treatment (patient history)", "setting": "[2]", "result": "severe adverse effects (tendency to fibrosis in the lungs and sinusitis)"}]}, {"molecule": "tocilizumab: IL-6 inhibitor", "values": [{"measurement": "effectiveness of earlier or basic treatment (patient history)", "setting": "[3]; Patient 7, rheumatoid arthritis/synovitis, before or beside the treatment of IE 7", "result": "only partially efficient"}]}]}
